The text below walks through data of PubChem BioAssay (NCI).

Common to all, as to assay: NCI-60 cell line screen, 48 h
The subject of assay [1] is CAKI-1 renal.
Assay [2] concerns RPMI-8226 leukemia.
Assay [3] relates to 786-0 renal.
The subject of assay [4] is RXF 393 renal.
For assay [5], the system named is PC-3 prostate.
The test system of assay [6] is T-47D breast.
The test system of assay [7] is IGROV1 ovarian.
For assay [8], the system named is SK-MEL-2 melanoma.
Assay [9] deals with COLO 205 colon.
The test system of assay [10] is HCC-2998 colon.

Values joined by “and” are separate entries in the source; they are usually repeats but may differ in a detail not shown here. Equal values may be shown once.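 Following 48 hours of exposure in 96-well plates, responses at five concentrations were used to interpolate endpoints linearly. Here, GI50 denotes the concentration required for 50% inhibition of growth. TGI denotes the concentration required for complete inhibition of growth.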

Regarding `Cc1ccc(S(=O)(=O)N2CCC(C(=O)O)(c3ccccc3)CC2)cc1`, the TGI in [1], in assay [2], in assay [3], in [4], in [5] and in assay [6] was > 100 µM each time. Besides, the TGI in assay [7], in assay [8] and in assay [9] was > 100 µM each time.
Turning to `N/C(=N\C(N)=N\c1nc2ccccc2s1)c1cnccn1`, the GI50 is 2.14 µM in [1]; 3.2 µM in [2]; 2.97 µM in assay [3]; 1.93 µM in assay [4]; 3.78 µM in assay [5]; 2.24 µM in assay [6]. The GI50 in [8] is 1.95 µM. The TGI in assay [1] is 5.06 µM; in assay [2], > 100 µM; in [3] it was > 100 µM; in assay [4] it was 3.96 µM; in assay [5], > 100 µM; in assay [6] it was 6.22 µM. This compound gave a TGI in assay [8] of 4.63 µM.
In the case of `Cc1ccnc(Nc2ccc([N+](=O)[O-])c(NCCN3CCOCC3)n2)c1`, the GI50 in [1] is 0.0052 µM; in [2], 0.0212 µM and 0.0269 µM; in assay [3] it was 0.00821 µM and 0.0149 µM; in assay [10], 0.0187 µM and 0.0171 µM; in assay [5] it was 0.00603 µM; in assay [6], 26.1 µM. Also, the GI50 is 0.0389 µM and 0.0579 µM in assay [7]; 0.00566 µM and 0.0304 µM in [8]; 0.00502 µM in [9]. Also, the TGI in assay [1] was > 100 µM; in [2], 24.5 µM; in assay [3] it was 23.7 µM; in [10], 14.7 µM; in assay [5], 39.5 µM; in assay [6] it was 74.9 µM. The TGI is 42.4 µM in [7]; 27.2 µM in assay [8]; 0.0417 µM and 0.0333 µM in [9].
As to `C[C@]12CCC3=NCCN3C1=CC[C@@H]1[C@@H]2CC[C@@]2(C)[C@H]1CC[C@]2(C)O`, the TGI in [1] was > 100 µM; in assay [2], 70.8 µM; in assay [3] it was 32.4 µM; in [4], 66.4 µM; in assay [5] it was > 100 µM; in [6], > 100 µM. Besides, the TGI in assay [7] is > 100 µM; in assay [8], > 100 µM; in assay [9] it was 75.5 µM.
Turning to `c1cncc(C2ONC3=NCCN32)c1` (stereo not given), the GI50 in assay [1] is 8.92 µM; in assay [3], 6.22 µM; in [10] it was 27.1 µM; in assay [4] it was 20.9 µM; in [5], 30.8 µM; in assay [6], 40 µM. Besides, the GI50 in assay [7] was 24 µM; in assay [8], 68.8 µM; in [9], 27.7 µM. The TGI in assay [1] was 42.2 µM; in [3] it was 39.2 µM; in assay [10], 94.5 µM; in assay [4] it was 96.3 µM; in assay [5] it was > 100 µM; in assay [6], > 100 µM. For the same compound, the TGI in assay [7], in [8] and in assay [9] was > 100 µM in each case.
`CCCCC[C@@H](C/C=C/CCC(=O)NC/C(=C/Cl)[C@H]1C(=O)C(C)(C)C(=O)[C@@H](C)[C@@]1(C)O)OC`: the GI50 is 18.2 µM in assay [1]; 6.23 µM in assay [2]; 1.58 µM in [3]; 17.4 µM in assay [4]; 19.6 µM in [5]; 15.4 µM in assay [6]. Further, the GI50 in assay [7] was 16.4 µM; in [8], 17.3 µM; in assay [9], 18.5 µM. Besides, the TGI in assay [1] is 34.1 µM; in [2] it was 23 µM; in assay [3] it was 16.9 µM; in [4], 34.2 µM; in assay [5], 43.5 µM; in assay [6] it was 34.6 µM. Besides, the figures for the TGI in assay [7], in assay [8] and in assay [9] were 31.3 µM, 31.9 µM and 33.6 µM, respectively.
On to `Cc1ccc(C2=C(Cl)C(=O)C(c3ccc(C)cc3)=C(Cl)C2=O)cc1`, for which the TGI in assay [1], in assay [2], in assay [3], in assay [4], in assay [5] and in assay [6] was > 100 µM each time. Further, the TGI in assay [7] and in assay [9] was > 100 µM throughout.
`COc1cc2cc3c(c(O)c2c(O)c1-c1c(OC)cc2cc4c(c(O)c2c1O)C(=O)O[C@H](C)C4)C(=O)O[C@H](C)C3`: the GI50 in assay [1] was 23.9 µM; in assay [3] it was 21.1 µM; in [10], 33 µM; in assay [4] it was 24.4 µM; in assay [5], 35.8 µM; in assay [6], 23.3 µM. Also, the results for the GI50 in [8] and in assay [9] were 50.7 µM and 27.2 µM, respectively. Also, the TGI in assay [1] is 61.2 µM; in [3], 64.8 µM; in assay [10], > 100 µM; in assay [4] it was > 100 µM; in assay [5], > 100 µM; in assay [6], 57.2 µM. Further, the TGI in assay [8] is > 100 µM; in [9], 78.7 µM.
`CCOc1ccc(Nc2nc(-c3c(C)nc4ncccn34)cs2)cc1`: the GI50 in assay [1] was 0.0144 µM; in assay [2] it was 0.0366 µM; in assay [3], 0.0392 µM; in assay [10] it was 0.0522 µM; in [5] it was 0.0185 µM; in assay [6], 1.04 µM. Moreover, the GI50 in [7] was 0.0797 µM; in [8] it was 0.0389 µM; in assay [9], < 0.01 µM. For the same compound, the TGI in assay [1] stood at 15.8 µM; in assay [2] it was 14.5 µM; in [3], 18.4 µM; in assay [10], 15.7 µM; in assay [5], 17.5 µM; in [6] it was 17.1 µM. Moreover, the TGI in assay [7] turned out to be 26.2 µM; in assay [8] it was 21.7 µM; in assay [9], 0.0404 µM.
On to `O=C(C(=O)c1cc(Br)ccc1O)c1cc(Br)ccc1O`, for which the GI50 was 2.16 µM in assay [1]; 2.71 µM in assay [2]; 3.87 µM in [3]; 4.75 µM in assay [10]; 3.13 µM in assay [5]; 3.87 µM in assay [6]. Moreover, the GI50 is 2.57 µM in assay [7], 3.88 µM in assay [8] and 18.6 µM in [9]. Also, the TGI in [1] is 6.05 µM; in assay [2] it was 88.2 µM; in assay [3] it was 13.7 µM; in assay [10], 18.6 µM; in assay [5], 15.7 µM; in [6], > 100 µM. Further, the TGI stood at 8.58 µM in [7], 13.3 µM in [8] and 44.5 µM in [9].
For the compound `OCCCCC#Cc1ccccc1C#Cc1ccc(C(F)(F)F)cc1`, the GI50 in assay [1] was 18.6 µM; in assay [2], 19.9 µM; in assay [3] it was 4.72 µM; in [10], 17.1 µM; in assay [5], 17.5 µM; in assay [6], 15.9 µM. Further, the GI50 in assay [7] was 17.6 µM; in [8], 16 µM; in [9], 17.4 µM. The TGI worked out at 33.8 µM in [1]; 48.8 µM in [2]; 18.1 µM in assay [3]; 32 µM in assay [10]; 35 µM in [5]; 33.9 µM in assay [6]. Besides, the TGI in assay [7] worked out at 32 µM; in assay [8], 33.9 µM; in [9] it was 33 µM.
On to `N#CCC1(n2cc(-c3ncnc4[nH]ccc34)cn2)CN(C2CCN(C(=O)c3ccnc(C(F)(F)F)c3F)CC2)C1`, for which the GI50 in [2] was 98.2 µM; in assay [3], > 100 µM; in assay [10] it was > 100 µM; in assay [4] it was 28.2 µM; in [5] it was > 100 µM; in assay [6] it was 51.7 µM. Besides, the GI50 was > 100 µM in assay [7], > 100 µM in [8] and 57.8 µM in assay [9]. In addition, the TGI in assay [2], in assay [3], in [10], in assay [4], in assay [5] and in assay [6] was > 100 µM each time. Further, the TGI in assay [7], in [8] and in assay [9] was > 100 µM each time.
With `COc1ccc(Cc2nc3cc(OC)c(OC)cc3c(=O)[nH]2)cc1`, the GI50 in assay [1] is 6.64 µM; in assay [2] it was 4.05 µM; in [3] it was 7.31 µM; in assay [10], 2.98 µM; in assay [4], 3.95 µM; in assay [5] it was 22 µM. Besides, the GI50 in [6] was 21.5 µM; in assay [7], 4.61 µM; in assay [9], 2.33 µM. Further, the TGI in assay [1] is > 93.4 µM; in assay [2], > 100 µM; in assay [3], > 100 µM; in assay [10], 17.1 µM; in [4], 24.3 µM; in [5] it was > 100 µM. Also, the TGI in assay [6] was > 100 µM; in [7] it was > 67.2 µM; in assay [9], 6.93 µM.
